{"source": "patent US8008340B2", "about": "“3-arylthioindole-2-carboxamide derivatives and analogs thereof as inhibitors of casein kinase I” (Aventis Pharmaceuticals Inc., priority 2004, dated 2011)"}
{"target": "T1, casein kinase 1ε (Homo sapiens, UniProt P49674)", "T1 construct": "made in house", "T1 sequence (P49674 whole entry)": "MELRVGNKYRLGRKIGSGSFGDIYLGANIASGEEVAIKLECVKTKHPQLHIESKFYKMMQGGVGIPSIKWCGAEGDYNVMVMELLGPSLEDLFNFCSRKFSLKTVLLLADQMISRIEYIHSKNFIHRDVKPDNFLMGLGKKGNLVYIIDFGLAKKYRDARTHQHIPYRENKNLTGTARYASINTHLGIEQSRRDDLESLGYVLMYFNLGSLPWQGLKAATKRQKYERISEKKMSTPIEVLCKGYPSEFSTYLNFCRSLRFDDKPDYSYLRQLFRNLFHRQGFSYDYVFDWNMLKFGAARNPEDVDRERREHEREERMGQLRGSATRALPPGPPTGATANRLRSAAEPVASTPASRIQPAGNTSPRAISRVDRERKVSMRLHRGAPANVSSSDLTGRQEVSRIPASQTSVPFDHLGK", "test": "Casein Kinase Epsilon 33P-ATP Filter Plate Assay", "assay_type": "biochemical", "conditions": "phosphorylation of casein, 33P-ATP with 10 μM cold ATP, 2 hours at room temperature; * denotes average of two or more determinations; read-out: CKIε Inhibition IC50", "procedure": "Casein Kinase Epsilon ^33P-ATP Filter Plate Assay for Screening CK1ε Inhibitors Purpose: This assay measures the effect of compounds to inhibit the phosphorylation of the substrate casein by the enzyme casein kinase 1ε using an in vitro ^33P-ATP filtration assay. Compounds are tested at five concentrations in duplicate in order to generate IC50 values or % inhibition at a 10 micromolar concentration that are summarized in Table 4.\nEnzyme: • Casein Kinase 1ε final concentration 0.58 mg/ml obtained from fermentation and purification processes as are well known to one skilled in the art. The above are stored as 100 μL aliquots at minus 80° C.\nCompounds: • Compounds for testing are supplied as frozen 10 mM compound stock dissolved in 100% DMSO. Assay Conditions:\nFinal total assay volume per well is equal to 50 μL made up as follows: • 5 μL of diluted compound stock (10, 1, 0.1, 0.01 or 0.001 μM), • 5 μL of dephosphorylated casein final concentration 0.2 μg/μL, • 20 μL of CK1ε final concentration 3 ng/μL, and • 20 μL of γ-^33P-ATP final concentration 0.02 μCi/μL mixed with cold ATP (10 μM final). Methodology: • 1. 500 mL of fresh assay buffer is made: 50 mM Tris pH 7.5, 10 mM MgCl2, 2 mM DTT and 1 mM EGTA • 2. Compounds to be evaluated are obtained as 10 μL of 10 mM stock dissolved in 100% DMSO. Using a Biomek 2000 liquid handling robot, serial dilutions are made to yield 10, 1, 0.1, 0.01 and 0.001 μM final compound dilutions added as 5 μL additions to Falcon U bottom plates. Typically 8 compounds are tested per 96 well plate with column 1 and 12 serving as control wells. A routine screening assay will consist of 32 compounds, which equals 4 assay plates. • 3. Assay plate maps are set up according to the following pattern CKlePlateMap.xls\n• 4. Once 5 μL of compound has been added as indicated, 5 μL of dephosphorylated casein (dissolved in distilled H2O)(0.2 μg/μL) and 20 μL CK1ε (3 ng/μL) are added to the appropriate wells. • 5. Finally 20 μL γ-^33P-ATP (0.02 μCi/μL)/10 μM cold ATP are added (equals approximately 2×10^6 CPM per well). • 6. The Falcon U-Bottom assay plate containing the above 50 μL reaction volume is vortexed and then incubated at room temperature for 2 hours. • 7. At the end of 2 hours, the reaction is stopped by the addition of 65 μL of ice cold 2 mM cold ATP (made up in assay buffer) to the assay plates using a Beckman Multimek • 8. At the same time 25 μL 100% ice cold TCA made up in distilled H2O is added to a matching number of Millipore MAPH filter plates. • 9. Using a handheld 8-channel pipettor, 100 μL of the reaction mixture is transferred from the Falcon U-Bottom Plate to the Millipore MAPH filter plates presoaked with TCA. • 10. The Millipore MAPH filter plates are mixed gently and allowed to sit at room temperature for at least 30 minutes to precipitate the proteins. • 11. After 30 minutes the filter plates are placed on a Millipore vacuum manifold and filtered at no more than 8 mm Hg as the MAPH filters tend to “air lock” at higher vacuum settings. • 12. The filter plates are sequentially washed and filtered with 2×150 μL 20% TCA, 2×150 μL 10% TCA and 2×150 μL 5% TCA (total of 6 washes per plate/900 μL per well). • 13. Plates are allowed to dry overnight at room temperature. The next day 40 μL Packard Microscint-20 Scintillation Fluid is added per well using a Titertek Multidrop dispenser; the plates are sealed and counted for 2 minutes/well in a Packard Topcount NXT Scintillation Counter (CPM values/well are captured).\nCalculation: • 1. Counts Per Minute (CPM) data is captured and imported into a proprietary data calculation and archiving database (Activity Base by IDBS version 5.0). • 2. Column 1 for each plate reflects total phosphorylation activity of the enzyme in the absence of any inhibiting compound and thus represents 100%. Column 12 reflects any nonspecific phosphorylation/retained radioactivity activity in the absence of inhibiting compound and enzyme. […]", "units": {"IC50": "µM"}}
{"smiles": "NC(=O)c1[nH]c2ccccc2c1Oc1ccccc1", "note": "[Il, 3-Phenoxy-1H-indole-2-carboxylic acid amide]", "IC50": "> 10"}
{"smiles": "CC(C)(C)Oc1c(C(N)=O)[nH]c2ccccc12", "note": "[It, 3-tert-Butoxy-1H-indole-2-carboxylic acid amide]", "IC50": 11.7}
{"smiles": "COc1ccc(Oc2c(C(N)=O)[nH]c3ccccc23)cc1", "note": "[Im]", "IC50": 5.8}
{"smiles": "COc1ccc2[nH]c(C(N)=O)c(Sc3ccccc3N)c2c1", "note": "[Ie, 3-(2-Amino-phenylsulfanyl)-5-methoxy-1H-indole-2-carboxylic acid amide]", "IC50": 0.18}
{"smiles": "NC(=O)c1[nH]c2ccc(Cl)cc2c1S(=O)(=O)c1ccccc1", "note": "[Ia, 3-Benzensulfonyl-5-chloro-1H-indole-2-carboxylic acid amide]", "IC50": "> 10"}
{"smiles": "CNC(=O)c1[nH]c2ccccc2c1Sc1ccccc1", "note": "[Ij, 3-Phenylsulfanyl-1H-indole-2-carboxylic Acid Methylamide]", "IC50": "> 10"}
{"smiles": "CCOc1c(C(N)=O)[nH]c2ccccc12", "note": "[Ir, 3-Ethoxy-1H-indole-2-carboxylic acid amide]", "IC50": 8.7}
{"smiles": "CC(C)Oc1c(C(N)=O)[nH]c2ccccc12", "note": "[Is, 3-Isopropoxy-1H-indole-2-carboxylic acid amide]", "IC50": 8.9}
{"smiles": "NC(=O)c1[nH]c2ccccc2c1Sc1ccccc1N", "note": "[Ih, 3-(2-Amino-phenylsulfanyl)-1H-indole-2-carboxylic acid amide]", "IC50": 0.08}
{"smiles": "NC(=O)c1[nH]c2ccccc2c1Sc1cccc(F)c1", "note": "[If, 3-(3-Fluoro-phenylsulfanyl)-1H-indole-2-carboxylic acid amide]", "IC50": 0.43}
{"smiles": "NC(=O)c1[nH]c2ccccc2c1Oc1ccccc1F", "note": "[Io]", "IC50": 2.4}
{"smiles": "NC(=O)c1[nH]c2ccccc2c1Oc1ccc(F)cc1", "note": "[In]", "IC50": 0.89}
{"smiles": "COc1c(C(N)=O)[nH]c2ccccc12", "note": "[Iq, 3-Methoxy-1H-indole-2-carboxylic acid amide]", "IC50": 13.5}
{"smiles": "NC(=O)c1[nH]c2ccccc2c1Oc1ccc(Cl)cc1", "note": "[Ip]", "IC50": 2.8}
{"smiles": "NC(=O)c1[nH]c2ccc(Br)cc2c1Sc1ccccc1N", "note": "[Ig, 3-(2-Amino-phenylsulfanyl)-5-bromo-1H-indole-2-carboxylic acid amide]", "IC50": 0.12}
{"smiles": "NC(=O)c1[nH]c2ccccc2c1OCc1ccccc1", "note": "[Iu, 3-Benzyloxy-1H-indole-2-carboxylic acid amide]", "IC50": 9.9}
{"smiles": "NC(=O)c1[nH]c2ccc(Br)cc2c1Sc1ccccc1", "note": "[Id, 5-Bromo-3-phenylsulfanyl-1H-indole-2-carboxylic acid amide]", "IC50": 0.42}
{"smiles": "NC(=O)c1[nH]c2ccccc2c1S(=O)(=O)c1ccccc1", "note": "[Ib, 3-Benzensulfonyl-1H-indole-2-carboxylic acid amide]", "IC50": 2.7}
{"smiles": "NC(=O)c1[nH]c2ccccc2c1Sc1ccccc1", "note": "[Ic, 3-Phenylsulfanyl-1H-indole-2-carboxylic acid amide]", "IC50": 3.1}
{"smiles": "CNC(=O)c1[nH]c2ccccc2c1Sc1ccccn1", "note": "[Ik, 3-(Pyridin-2-ylsulfanyl)-1H-indole-2-carboxylic acid methylamide]", "IC50": "> 10"}
{"smiles": "NC(=O)c1[nH]c2ccccc2c1Sc1ccccn1", "note": "[Ii, 3-(Pyridin-2-ylsulfanyl)-1H-indole-2-carboxylic acid amide]", "IC50": 187}
{"system": "Mper1-luc Rat-1 fibroblasts (P2C4)", "test": "Cellular Circadian Assay (Mper1-luc reporter, period lengthening)", "assay_type": "cell-based", "conditions": "effective micromolar concentration that induced a 1 hour lengthening of period", "text": "U.S. Pat. No. 6,555,328 B1 discloses screening methods in cells to identify compounds that alter circadian rhythms based on a test compound altering the ability of human casein kinase 1ε and/or human casein kinase 1δ to phosphorylate the human clock proteins hPER1, hPER2 and hPER3. For example, HEK293T cells are co-transfected with hCKIε and Per1 or Per2. For the purpose of evaluating the relevancy of CKIε inhibition and CKIε inhibitors to circadian biology, a high-throughput cellular assay (33rd Annual Meeting, Soc. for Neurosci., Nov. 8-12, 2003, Abstract numbers 284.1, 284.2, and 284.3) was developed in which circadian rhythm could be monitored in a routine manner. The assay consists of Rat-1 fibroblasts stably expressing an Mper1-luc construct, thus enabling the determination of the rhythmic activation of the Mper1 promoter in living cells by repeatedly estimating luciferase activity by monitoring light-output over several days. The repeated measure format of the assay permits accurate and reproducible assessment of the concentration-dependent effects of CKIε inhibitors on circadian rhythm and provides the nexus for relating CKIε inhibition to circadian period alteration.\nCell culture: Mper1-luc Rat-1 fibroblasts (P2C4) cultures were split every 3-4 days (˜10-20% confluence) onto 150 cm^2 vented polystyrene tissue culture flasks (Falcon #35-5001) and maintained in growth media [EMEM (Cellgro #10-010-CV); 10% fetal bovine serum (FBS; Gibco #16000-044); and 50 I.U./mL penicillin-streptomycin (Cellgro #30-001-C1)] at 37° C. and 5% CO2. […] Zeocin-resistant stable transfectants were assessed for reporter expression by supplementing growth media with 100 μM luciferin (Promega #E1603) and assaying luciferase activity on a TopCount scintillation counter (Packard Model #C384V00). Rat-1 clones expressing both Zeocin-resistance and mPer1-driven luciferase activity were synchronized by 50% horse serum [HS (Gibco #16050-122)] serum shock and assessed for circadian reporter activity. […]", "units": {"Cell Assay ECΔτ+1h": "µM"}}
{"smiles": "COc1ccc2[nH]c(C(N)=O)c(Sc3ccccc3N)c2c1", "note": "[Ie, 3-(2-Amino-phenylsulfanyl)-5-methoxy-1H-indole-2-carboxylic acid amide]", "Cell Assay ECΔτ+1h": ">10"}
{"smiles": "NC(=O)c1[nH]c2ccccc2c1Sc1cccc(F)c1", "note": "[If, 3-(3-Fluoro-phenylsulfanyl)-1H-indole-2-carboxylic acid amide]", "Cell Assay ECΔτ+1h": 1.6}
{"smiles": "NC(=O)c1[nH]c2ccc(Br)cc2c1Sc1ccccc1N", "note": "[Ig, 3-(2-Amino-phenylsulfanyl)-5-bromo-1H-indole-2-carboxylic acid amide]", "Cell Assay ECΔτ+1h": 1.6}
{"system": "not given", "test": "not given", "conditions": "not given", "units": {"melting point": "°C"}}
{"smiles": "O=C(c1[nH]c2ccc(F)cc2c1Sc1ccccn1)N1CCCC1", "note": "[Iaf, [5-Fluoro-3-(pyridin-2-ylsulfanyl)-1H-indol-2-yl]-pyrrolidin-1-yl-methanone]", "melting point": "254 to 255"}
{"smiles": "Cc1ccc(Sc2c(C(=O)N3CCCC3)[nH]c3ccc(F)cc23)cc1", "note": "[Iw, (5-Fluoro-3-p-tolylsulfanyl-1H-indol-2-yl)-pyrrolidin-1-yl-methanone]", "melting point": "254 to 255"}
{"smiles": "O=C(c1[nH]c2ccccc2c1Sc1ccccn1)N1CCCC1", "note": "[Iag, [3-(Pyridin-2-ylsulfanyl)-1H-indol-2-yl]-pyrrolidin-1-yl-methanone]", "melting point": "213 to 214"}
{"smiles": "O=C(c1[nH]c2ccccc2c1Sc1ccccc1)N1CCCCC1", "note": "[Ix, (3-Phenylsulfanyl-1H-indol-2yl)-piperidin-1-yl-methanone]", "melting point": "161 to 162"}
{"smiles": "O=C(c1[nH]c2ccc(F)cc2c1Sc1ccccc1)N1CCCC1", "note": "[Iy, (5-Fluoro-3-phenylsulfanyl-1H-indol-2-yl)-pyrrolidin-1-yl-methanone]", "melting point": "254 to 255"}
{"smiles": "NC(=O)c1[nH]c2ccccc2c1Sc1ccccc1", "note": "[Ic, 3-Phenylsulfanyl-1H-indole-2-carboxylic acid amide]", "melting point": "197 to 197.5"}
